Source: US9938301B2, “Dihydropyrimido fused ring derivative as HBV inhibitor” (QILU PHARMACEUTICAL CO., LTD., priority 2014, dated 2018)
Where two headings read alike, the source gives them in different places.

Tested on: HBV DNA in HepG2.2.15 cells
Experiment: HBV in vitro dot-blot hybridization test
Assay type: cell-based, Hepatitis B virus
Method: • 1. Purpose of the test: • The content of HBV DNA in HepG2.2.15 cells was detected by dot-blot hybridization test to evaluate an inhibitory action of the compound on HBV with an EC50 value as an indicator. • 2. Experimental materials: • 2.1 Cell lines: HepG2.2.15 Cells • HepG2.2.15 cell culture media (DMEM/F12, Invitrogen-11330057; 10% serum Invitrogen-10099141; 100 units/mL Penicillin and 10 μg/mL Streptomycin, Invitrogen-15140122; 1% non-essential amino acid, Invitrogen-11140076; 2 mM L-GLUTAMINE, Invitrogen-25030081; 300 µg/ml Geneticin, Invitrogen-10131027 • 2.2 Reagents: • Trypsin (I Invitrogen-25300062) • DPBS (Hyclone-SH30028.01B) • DMSO (Sigma-D2650-100ML) • 96-well cell-culture plate (Corning-3599) • CO2 incubator (HERA-CELL-240) • 20×SSC (Bio-serve Co. Ltd) • Tris-HCl (Aldirch-154563-1KG) • NaOH (Sinopharm 10019718) • NaCl (Sinopharm 10019308) • Hybridization solution (Major BioTech Co. Ltd, IMMUNE GOLD-HYB-500) • DIG Wash and Block Buffer set (Roche-11585762001) • Anti-digoxigenin-AP, Fab fragments from sheep (Roche-11093274910) • 2.3 Materials and Instruments: • Positively-Charged Nylon Membrane (GE-RPN2250B) • Transfer Membrane Instrument (Bio-Rad, 170-6545) • Hybridization Oven (HL-2000 Hybrilinker) • 3. Testing steps and Methods: • 3.1 HepG2.2.15 cells (4×10^4 cells/well) were planted into a 96-well plate, and at 37° C., 5% CO2 cultured overnight. • 3.2 On Day 2, the compounds were diluted in totally 6 concentrations with a dilution gradient of five times. The compounds at different concentrations were added into the culture wells in duplicate. The final concentration of DMSO in the culture media was 1%. 1 μM GLS4 was used as 100% inhibition control; 1% DMSO as 0% inhibition control. • 3.3 On Day 5, replacing with the fresh culture media containing the compound was performed. • 3.4 On Day 8 and Day 9, the culture media in the culture wells was removed, and the cells were harvested for dot-blot hybridization. • The lysate was added into a culture well, and at 37° C. incubating for half an hour to disintegrate cells; the supernatant was obtained by centrifugation and transferred into a new microplate; a denaturation solution was added, after sufficient mixing the denatured sample was transferred and imprinted onto a Nylon membrane, the nucleic acid was fixed onto the membrane by UV cross-linking. • Pre-hybridization: the membrane was incubated at 60° C. in a hybridization solution for 1 hour. • Hybridization: heating the denatured digoxin-labelled HBV DNA probe and incubating at 60° C. overnight. • Membrane Washing: performing high strigency washing twice, low strigency washing for 3 times. • Blocking: incubating the membrane at room temperature in a blocking solution for 30-60 minutes. • Hybridization: diluting the Antibody Solution with the blocking solution, in which the membrane was placed and incubated at room temperature for 30-60 minutes. • Developing: washing the membrane in a Detection Buffer for 5 minutes, followed by adding a developing solution, pressing and exposing. • The photos was saved in tiff format, and a gray value of the dot was quantified with quantity one software. • 3.5 Data Analysis: • 3.5.1 The inhibition percentage was calculated: % Inh.=[1−(sample dot gray value−1 μM GLS4 dot gray value 1)/(DMSO control dot gray value−1 μM GLS4 dot gray value 1)]×100. • 3.5.2 Calculating EC50: the concentration of the compound for 50% inhibition of HBV (EC50) was calculated by using GraphPad Prism Software. • 4.

[1] = Hepatitis B virus, HepG2.2.15, dot-blot hybridization assay, read-out: Concentration for 50% inhibition of HBV (EC50)value
[2] = Hepatitis B virus, HepG2.2.15, summary list of target compounds, Examples 1-165 (same as Table 2), read-out: BIOACTIVITY (inhibitory actions on HBV DNA, EC50)
[3] = summary list of target compounds, Examples 1-165 (same as Table 2), read-out: BIOACTIVITY (inhibitory actions on HBV DNA, EC50)
[4] = dot-blot hybridization assay, read-out: Concentration for 50% inhibition of HBV (EC50)value

SMILES | EC50 [1] | EC50 [2] | EC50 [3] | EC50 [4]
CCOC(=O)C1=C2CCCN2C(c2nccs2)=NC1c1ccc(F)cc1Cl (racemic) [Example 1] | 100 to 500 nM | 100 to 500 nM |  | 
CCOC(=O)C1=C2C(N(C)CCO)CCN2C(c2nccs2)=NC1c1ccc(F)cc1Cl (racemic) [Example 2] | 1000 to 5000 nM | 1000 to 5000 nM |  | 
CCOC(=O)C1=C2[C@@H](C(N)=O)CCN2C(c2nccs2)=N[C@H]1c1ccc(F)cc1Cl (racemic) [Example 3] | 100 to 500 nM | 100 to 500 nM |  | 
CCOC(=O)C1=C2CCCN2C(c2nccs2)=NC1c1ccc(F)cc1Br (racemic) [Example 4] | 100 to 500 nM | 100 to 500 nM |  | 
CCOC(=O)C1=C2C[C@@H](CO)CN2C(c2nccs2)=NC1c1ccc(F)cc1Br (mixture of isomers) [Example 8] | 100 to 500 nM | 100 to 500 nM |  | 
CCOC(=O)C1=C2C[C@@H](CO)CN2C(c2nccs2)=NC1c1ccc(F)cc1Br (mixture of isomers) [Example 9] |  |  | 100 to 500 nM | 
COCC1CC2=C(C(=O)OC)C(c3ccc(F)cc3Br)N=C(c3nccs3)N2C1 (racemic) [Example 10] | 1000 to 5000 nM | 1000 to 5000 nM |  | 
CCOC(=O)C1=C2C[C@@H](CC#N)CN2C(c2nccs2)=NC1c1ccc(F)cc1Br (mixture of isomers) [Example 11] |  |  | 1000 to 5000 nM | 1000 to 5000 nM
CCOC(=O)C1=C2C[C@@H](CC#N)CN2C(c2nccs2)=NC1c1ccc(F)cc1Br (mixture of isomers) [Example 12] |  |  | 100 to 500 nM | 100 to 500 nM
CCOC(=O)C1=C2C[C@@H](CN3CCOCC3)CN2C(c2nccs2)=NC1c1ccc(F)cc1Br (mixture of isomers) [Example 17] | 1000 to 5000 nM | 1000 to 5000 nM |  | 
CCOC(=O)C1=C2C[C@@H](CN3CCOCC3)CN2C(c2nccs2)=NC1c1ccc(F)cc1Br (mixture of isomers) [Example 18] |  |  | 1000 to 5000 nM | 
CCOC(=O)C1=C2CC(C(=O)O)CN2C(c2nccs2)=NC1c1ccc(F)cc1Br (racemic) [Example 23] | 1000 to 5000 nM | 1000 to 5000 nM |  | 
CCOC(=O)C1=C2C[C@@H](C#N)CN2C(c2nccs2)=NC1c1ccc(F)cc1Br (mixture of isomers) [Example 26] |  |  | 500 to 1000 nM | 500 to 1000 nM
CCOC(=O)C1=C2C[C@@H](C#N)CN2C(c2nccs2)=NC1c1ccc(F)cc1Br (mixture of isomers) [Example 27] |  |  | 100 to 500 nM | 100 to 500 nM
CCOC(=O)C1=C2C[C@@H](C(N)=O)CN2C(c2nccs2)=NC1c1ccc(F)cc1Br (mixture of isomers) [Example 28] | 100 to 500 nM | 100 to 500 nM |  | 
CCOC(=O)C1=C2C[C@@H](C(N)=O)CN2C(c2nccs2)=NC1c1ccc(F)cc1Br (mixture of isomers) [Example 29] |  |  | 100 to 500 nM | 
CCOC(=O)C1=C2CC(NC(=O)OC)CN2C(c2nccs2)=N[C@H]1c1ccc(F)cc1Br (mixture of isomers) [Example 42] | < 100 nM | < 100 nM |  | 
CCOC(=O)C1=C2CC(NC(=O)OC(C)C)CN2C(c2nccs2)=N[C@H]1c1ccc(F)cc1Br (mixture of isomers) [Example 45] | < 100 nM | < 100 nM |  | 
CCOC(=O)C1=C2CC(NC(C)=O)CN2C(c2nccs2)=N[C@H]1c1ccc(F)cc1Br (mixture of isomers) [Example 48] | 100 to 500 nM | 100 to 500 nM |  | 
CCOC(=O)C1=C2CC(NC(=O)NC)CN2C(c2nccs2)=N[C@H]1c1ccc(F)cc1Br (mixture of isomers) [Example 51] | 100 to 500 nM | 100 to 500 nM |  | 
CCOC(=O)C1=C2CC(NS(=O)(=O)NC)CN2C(c2nccs2)=N[C@H]1c1ccc(F)cc1Br (mixture of isomers) [Example 54] | < 100 nM | < 100 nM |  | 
CCOC(=O)C1=C2CC(NS(C)(=O)=O)CN2C(c2nccs2)=N[C@H]1c1ccc(F)cc1Br (mixture of isomers) [Example 57] | < 100 nM | < 100 nM |  | 
CCOC(=O)C1=C2CC(NS(=O)(=O)C3CC3)CN2C(c2nccs2)=N[C@H]1c1ccc(F)cc1Br (mixture of isomers) [Example 60] | < 100 nM | < 100 nM |  | 

SMILES | EC50 [1] | EC50 [2] | EC50 [3] | EC50 [4]
CCOC(=O)C1=C2COC(=O)N2C(c2nccs2)=NC1c1ccc(F)cc1Br (racemic) [Example 67] | 100 to 500 nM | 100 to 500 nM |  | 
CCOC(=O)C1=C2CCC(=O)N2C(c2nccs2)=NC1c1ccc(F)cc1Br (racemic) [Example 68] | 1000 to 5000 nM | 1000 to 5000 nM |  | 
CCOC(=O)C1=C2CCCN2C(c2nccs2)=NC1c1ccc(F)c(F)c1 (racemic) [Example 69] | 100 to 500 nM | 100 to 500 nM |  | 
CCOC(=O)C1=C2CCCN2C(c2nccs2)=NC1c1cccc(F)c1Cl (racemic) [Example 70] | 100 to 500 nM | 100 to 500 nM |  | 
CCOC(=O)C1=C2CCCN2C(c2nccs2)=NC1c1ccc(F)cc1C (racemic) [Example 71] | 100 to 500 nM | 100 to 500 nM |  | 
CCOC(=O)C1=C2CCCN2C(c2nccs2)=NC1c1ccc(F)cc1F (racemic) [Example 72] | 500 to 1000 nM | 500 to 1000 nM |  | 
CCOC(=O)C1=C2CCCN2C(c2nccs2)=NC1c1ccc(F)cc1 (racemic) [Example 73] | 1000 to 5000 nM | 1000 to 5000 nM |  | 
CCOC(=O)C1=C2CCCN2C(c2nccs2)=NC1c1cc(Cl)sc1Cl (racemic) [Example 74] | 1000 to 5000 nM | 1000 to 5000 nM |  | 
CCOC(=O)C1=C2CCCN2C(c2nccs2)=NC1(C)c1ccc(F)cc1 (racemic) [Example 75] | 1000 to 5000 nM | 1000 to 5000 nM |  | 
CCOC(=O)C1=C2CCCN2C(c2ncc(F)cc2F)=NC1c1ccc(F)cc1Cl (racemic) [Example 76] | 1000 to 5000 nM | 1000 to 5000 nM |  | 
CCOC(=O)C1=C2CCCN2C(c2ccsn2)=NC1c1ccc(F)cc1Cl (racemic) [Example 77] | 1000 to 5000 nM | 1000 to 5000 nM |  | 
CCOC(=O)C1=C2CCCN2C(c2nccn2C)=NC1c1ccc(F)cc1Cl (racemic) [Example 78] | 1000 to 5000 nM | 1000 to 5000 nM |  | 
CCOC(=O)C1=C2CCCN2C(c2nc(C)cs2)=NC1c1ccc(F)cc1Cl (racemic) [Example 79] | 1000 to 5000 nM | 1000 to 5000 nM |  | 
COCOC(=O)C1=C2CCCN2C(c2nccs2)=NC1c1ccc(F)cc1Br (racemic) [Example 80] | 1000 to 5000 nM | 1000 to 5000 nM |  | 
O=C(OCC(F)F)C1=C2CCCN2C(c2nccs2)=NC1c1ccc(F)cc1Br (racemic) [Example 81] | 1000 to 5000 nM | 1000 to 5000 nM |  | 
CCOC(=O)C1=C2CNCCN2C(c2nccs2)=NC1c1ccc(F)cc1Br (racemic) [Example 83] | 1000 to 5000 nM | 1000 to 5000 nM |  | 
CCOC(=O)C1=C2CN(C(C)=O)CCN2C(c2nccs2)=NC1c1ccc(F)cc1Br (racemic) [Example 86] | 500 to 1000 nM | 500 to 1000 nM |  | 
CCOC(=O)C1=C2CN(S(C)(=O)=O)CCN2C(c2nccs2)=NC1c1ccc(F)cc1Br (racemic) [Example 87] | 500 to 1000 nM | 500 to 1000 nM |  | 
CCOC(=O)C1=C2CN(CC(N)=O)CCN2C(c2nccs2)=NC1c1ccc(F)cc1Br (racemic) [Example 95] | 100 to 500 nM | 100 to 500 nM |  | 
CCOC(=O)C1=C2CN(C)CCN2C(c2nccs2)=NC1c1ccc(F)cc1Br (racemic) [Example 96] | 1000 to 5000 nM | 1000 to 5000 nM |  | 
CCOC(=O)C1=C2CN(Cc3ccc(OC)cc3)CCN2C(c2nccs2)=NC1c1ccc(F)cc1Br (racemic) [Example 97] | 1000 to 5000 nM | 1000 to 5000 nM |  | 
CCOC(=O)C1=C2CNC(=O)CN2C(c2nccs2)=NC1c1ccc(F)cc1Br (racemic) [Example 104] | 1000 to 5000 nM | 1000 to 5000 nM |  | 
